Results published in patent publication US7550613B2, “Compounds” (Pronova Biopharma Norge AS, priority 2005, dated 2009).

Columns and labels:
[1] = Analysis of intracellular free fatty acids in liver tissue (RP-HPLC MS/MS); assay type: in vivo, adipose prone mice of the C57BL/6J strain; conditions: FIG. 4; 1.5% of total fat content
Experimental: In the first block of experiments (see FIG. 2) liver tissue from animals fed PRB-1,2,5, and 7 was analysed with respect to free unesterified fatty acids. The animals were recruited from the fifth block of experiments (pharmacodynamic effects of DHA derivatives in an animal model of metabolic syndrome). The animals had been given DHA ([…] of fat content of the diet) or the DHA-derivatives (1.5% of the fat content in their diet) for 8 weeks and were supposed to be in a steady-state situation with stable levels of DHA and the DHA-derivatives intracellularily. Liver tissue was chosen due to the fact that the metabolisation rate is very high in liver.
The liver samples were homogenized in cold PBS buffer, and extracted immediately with chloroform:methanol (2:1) containing 0.2 mM butylated hydroxytoluene (BHT) using cis-10-heptadecenoic acid as internal standard. […] Total protein content was measured using Bio-Rad method after homogenization.
Agilent 1100 system was used for reverse phase column (Supelco Ascentis C18 column, 25 cm×4.6 mm, i.d. 5 μm) separation of DHA and its PRB derivatives within 22 min. […] The column elute was identified and quantified in the negative electrospray ionisation applying multiple reaction monitoring mode by triple tandem quadrapole mass/mass (ABI Qtrap-4000). […] The quadratic regression standard curve was used for quantification after internal standard calibration. […]

PPARγ = molecular target: T1, PPARγ (Homo sapiens, UniProt P37231); test: Affinity testing in transfected cells (release of luciferase); assay type: cell-based; conditions: FIG. 8; 10 μM of PRBs
T1 construct: For full length PPAR transfection studies, each well received 5 μg reporter construct; expressed in transfected cells; host or cells: COS-1 cells
T1 sequence (P37231 1-505): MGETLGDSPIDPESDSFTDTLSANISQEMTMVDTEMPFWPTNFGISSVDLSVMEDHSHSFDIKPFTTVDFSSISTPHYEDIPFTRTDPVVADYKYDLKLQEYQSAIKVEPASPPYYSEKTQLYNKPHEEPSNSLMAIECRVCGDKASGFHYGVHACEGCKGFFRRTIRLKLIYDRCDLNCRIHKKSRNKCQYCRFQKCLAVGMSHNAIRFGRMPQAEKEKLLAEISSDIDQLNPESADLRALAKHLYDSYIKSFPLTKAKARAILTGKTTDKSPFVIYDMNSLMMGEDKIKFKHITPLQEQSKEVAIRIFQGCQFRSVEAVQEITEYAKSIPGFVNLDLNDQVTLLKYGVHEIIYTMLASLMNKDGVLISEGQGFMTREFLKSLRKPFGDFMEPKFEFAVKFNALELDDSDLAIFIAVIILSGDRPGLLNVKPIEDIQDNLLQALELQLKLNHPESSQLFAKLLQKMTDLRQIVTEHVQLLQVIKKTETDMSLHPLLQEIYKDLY
Experimental: Release of luciferase is correlated to transcription of genes. Binding of a ligand to a nuclear receptor such as PPARγ induces transcription of the respective gene thereby releasing luciferase. This technique therefore provides a measure of ligand affinity to the receptor as well as activation of the responsible gene.
Transient transfection of COS-1 cells was performed in 6-well plates as described by Graham and van der Eb (Graham). For full length PPAR transfection studies, each well received 5 μg reporter construct, 2.5 μg pSV-β-galactosidase as an internal control, 0.4 μg pSG5-PPARγ2. The cells were harvested after 72 h, and the luciferase activity was measured according to the protocol (Promega). The luciferase activity was normalised against β-galactosidase activity. The adipocytes were transfected at D11 of differentiation using 16 μl LipofectaminPlus reagent, 4 μl Lipofectamine (Life Technologies Inc.), 0.2 μg pSG5-PPARγ, and 100 ng pTK Renilla luciferase as control of transfection afficiency. […] The luciferase activities were measured as recommended by the manufacturer (Dual Luciferase assay, Promega). […]
Fatty acids (BRL or DHA) and PRBs (stock solutions) were solubilized to 0.1 M final concentration in DMSO. […] Luciferase activity was measured using a luminometer (TD-20/20 luminometer; Turner Designs, Sunnycvale, Calif.) and normalized against protein content.

[2] = Effect of DHA derivatives on established metabolic syndrome and insulin resistance (Example 5b); assay type: in vivo, C57BL/6 mice
Experimental: In another experiment, PRB-2, PRB-5, and PRB-7 were tested in the same breed of animals. In this experiment, animals were initially fed high fat diet (the same as in the previous experiment 5a) for 8 weeks developing insulin resistance and the metabolic syndrome, and then given the PRBs. […] After a period of another two weeks the animals were given 1.5% of PRB-2, 5% and 1.5% of PRB-5, and 1.5% and 0.5% of PRB-7.

[3] = Histological analysis of tissue samples, liver fat (Example 5c); assay type: in vivo, C57BL/6 mice; conditions: eosin-hematoxylin; control animals fed high fat diet had fat liver
Source text: Tissue samples from animals in the experiments with DHA derivatives was histologically analysed. After paraffination, tissue samples from liver, adipose tissue, skeletal muscle, pancreas, and kidney were stained with eosin-hematoxylin.

- intracellular concentration of DHA in liver tissue from animals given the PRB [1]: significantly higher level
Structure (SMILES): CC/C=C\C/C=C\C/C=C\C/C=C\C/C=C\C/C=C\CC(SCC)C(=O)OCC (stereo not drawn) [PRB-7, α-tioethyl docosahexaenoic acid ethyl ester]
- release of luciferase from transfected cells (PPARγ): significantly higher release of luciferase
- plasma insulin ([2]; FIG. 15): some effects on the insulin concentration
- AUC blood glucose compared to the baseline values ([2]; FIG. 16, 1.5% of PRB-2): some effect but not to the same extent
- fat liver (liver steatosis), histology [3]: low degree of fat liver
